Source: US9127016B2, “Small molecule inhibitors of Dusp6 and uses therefor” (University of Pittsburgh—Of the Commonwealth System of …, priority 2009, dated 2015)

Legend:
[1] = system: FGF signaling (d2EGFP reporter); assay: BCI analog SAR: d2EGFP intensity in transgenic zebrafish embryos by densitometry; assay type: in vivo; conditions: 20 μM, 24 hpf embryos, 6 h; for Activity (BCI = 100): d2EGFP intensity in the dorsal region
Experimental: Transgenic zebrafish embryos (24 hpf) were treated with 20 μM solution of BCI analogs in 0.5% aq DMSO and fluorescence photomicrographs were taken after 6 h. The effectiveness of BCI analogs was evaluated by densitometry (ImageJ) of d2EGFP intensity in the dorsal region.

[2] = system: FGF signaling (Tg(Dusp6:d2EGFP)pt6 reporter); assay: Transgenic zebrafish chemical screen, d2EGFP fluorescence; assay type: in vivo; conditions: 24 hpf embryos, 6-8 hours; analogs even at four-fold higher concentrations
Experimental: Tg(dusp6:d2EGFP)pt6 embryos were obtained by natural crossings and incubated at 28.5° C. until they reached 24 hpf. Five transgenic embryos were placed into each well from a 96-well plate in 200 μl of E3, and a 0.5% DMSO solution was added along with compound from each library at 10 μM. The NCI diversity set (NCl/NIH), the Natural Products library (MicroSource Discovery Systems Inc.) and Phosphatase targeted set (Chembridge) were screened in this study. (E)-2-Benzylidene-3-(cyclohexylamino)-2,3-dihydro-1H-inden-1-one (BCI; also known as NSC150117) was identified as a compound that enhanced fluorescence in treated transgenic embryos. Treated embryos were photographed under the same settings for exposure, gain and magnification for each picture using a MZFLIII (Leica) microscrope and fluorescent illumination for GFP using endow cube (Chroma Technology Corp., Rockingham, Vt.). Qimaging software and the Retiga Exi camera (Qimaging, Burnaby, BC Canada) were used to capture the images.
We previously described the generation of a transgenic zebrafish line, (Tg(Dusp6:d2EGFP)pt6) that expresses destabilized green fluorescent protein (d2EGFP) under the control of FGF signaling (Molina, G. A., et al. BMC Dev Biol 7, 62 (2007)). Using Tg(Dusp6:d2EGFP) embryos as a biosensor for FGF signaling, we screened over 5000 diverse compounds assembled from chemical libraries for small molecule modulators of this pathway. Five transgenic embryos at 24 hours post fertilization (hpf) were arrayed into each well of a 96-well plate containing test compounds at 10 μM. d2EGFP intensity in treated embryos was visually analyzed and compared to vehicle control (0.5% DMSO) after 6-8 hours. […] To confirm that BCI hyperactivated FGF signaling, we treated embryos prior to gastrulation (5 hpf), and we analyzed by whole mount in situ hybridization, the expression of ntl (zebrafish brachyury), a known FGF target gene (Latinkic, B. V. et al. Genes Dev 11, 3265-76 (1997)). […] We next determined the BCI structural features required to enhance FGF signaling. Two analogs, (E)-2-benzylidene-2,3-dihydro-1H-inden-1-one (BI) lacking the cyclohexylamino group, and 3-(cyclohexylamino)-2,3-dihydro-1H-inden-1-one (ICD) lacking the benzylidene group were synthesized).

Dusp6 = molecular target: T1, Dusp6 (Homo sapiens, UniProt Q16828); assay: Basal Dusp6 dephosphorylation of OMFP; assay type: biochemical; design: His; made in house
T1 sequence (Q16828 1-381): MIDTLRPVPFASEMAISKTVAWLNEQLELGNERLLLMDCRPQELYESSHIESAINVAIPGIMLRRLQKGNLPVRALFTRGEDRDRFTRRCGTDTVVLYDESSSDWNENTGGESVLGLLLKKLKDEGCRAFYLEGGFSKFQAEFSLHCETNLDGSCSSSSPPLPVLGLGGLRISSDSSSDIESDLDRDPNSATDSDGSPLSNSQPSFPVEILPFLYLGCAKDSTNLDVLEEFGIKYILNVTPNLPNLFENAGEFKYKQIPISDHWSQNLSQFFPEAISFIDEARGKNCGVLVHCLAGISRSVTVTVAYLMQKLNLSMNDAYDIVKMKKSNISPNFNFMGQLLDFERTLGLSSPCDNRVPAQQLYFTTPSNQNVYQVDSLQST
Experimental: For OMFP based ERK2 induced activation of Dusp6, recombinant His-tagged Dusp6 was expressed from a bacterial expression vector and 250 ng were incubated with the indicated concentrations of NSC95397 or BCI. OMFP was added at its apparent Km (100 μM) (Vogt, A. et al. J Biol Chem 280, 19078-86 (2005)). The final reaction volume was 15 μl. After 1 h at RT, OMF fluorescence was measured on an M5 multimode reader (Molecular Devices) at excitation/emission wavelengths of 485/525 nm. To assay activated Dusp6, 210 ng or 2.1 μg of recombinant ERK2 (Cell signaling) were added to Dusp6(210 ng)/BCI(100 μM) mixtures to measure activation at 1:1 and 1:10 ratio of substrate to enzyme. OMFP was immediately added and fluorescence (ex485/em525 nm) was read every 10 min for 130 min. Fold activation was calculated at 60 mins in each experiment.

Cdc25B = molecular target: T2, Cdc25B (Homo sapiens, UniProt P30305); assay: OMFP phosphatase assay, Cdc25B; assay type: biochemical; conditions: 100 μM, positive control
T2 sequence (P30305 1-580): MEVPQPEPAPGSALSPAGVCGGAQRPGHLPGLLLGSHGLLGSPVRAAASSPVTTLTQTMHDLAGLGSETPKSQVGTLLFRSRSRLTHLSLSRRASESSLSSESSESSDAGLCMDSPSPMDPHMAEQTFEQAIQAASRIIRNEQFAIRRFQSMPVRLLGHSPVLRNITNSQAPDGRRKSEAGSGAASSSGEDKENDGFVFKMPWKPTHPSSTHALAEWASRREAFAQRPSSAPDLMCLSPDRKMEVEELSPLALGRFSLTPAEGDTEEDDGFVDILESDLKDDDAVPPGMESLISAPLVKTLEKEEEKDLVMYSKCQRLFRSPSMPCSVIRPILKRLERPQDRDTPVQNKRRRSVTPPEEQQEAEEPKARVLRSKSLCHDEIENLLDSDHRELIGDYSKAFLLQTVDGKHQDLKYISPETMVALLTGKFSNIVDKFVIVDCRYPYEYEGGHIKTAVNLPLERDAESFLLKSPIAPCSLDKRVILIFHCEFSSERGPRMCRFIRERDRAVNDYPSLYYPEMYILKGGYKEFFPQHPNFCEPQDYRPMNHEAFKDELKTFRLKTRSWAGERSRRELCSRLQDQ
Experimental: (§1) Enzyme activities in the presence or absence of BCI were measured using the artificial substrate […] at concentrations equal to the Km of each enzyme (Cdc25B, PTP1B & Dusp3/VHR) and at optimal pH for individual enzyme activity in a 96-well microtiter plate assay based on previously described methods by Lazo et al. (J Med Chem 44, 4042-9 (2001) and Lazo, J. S. et al. Bioorg Med Chem 14, 5643-50 (2006)). Briefly, the standard assay conditions contained 0.02 mg/ml OMFP in assay buffer (30 mM Tris-HCl (pH8.0), 75 mM NaCl, 1 mM EDTA, 0.33% BSA and 1 mM DTT). Fluorescence emission was measured after a sixty-minute incubation period at ambient temperature using a multiwell plate reader (SpectraMax m5, […]; excitation 485 nm, emission 525 nm). Sodium orthovanadate (100 μM) was used as a positive control for full phosphatase inhibition. IC50 concentrations were determined from three experiments using 10 concentrations of BCI ranging from 300 μM to 15.2 nM and GraphPad Prism 5.0 software.

Dusp3/VHR = Dusp3/VHR (Homo sapiens, UniProt P51452); assay: OMFP phosphatase assay, Dusp3/VHR; assay type: biochemical; conditions: 100 μM, positive control
Experimental: as §1

PTP1B = molecular target: T3, PTP1B (Homo sapiens, UniProt P18031); assay: OMFP phosphatase assay, PTP1B; assay type: biochemical; conditions: 100 μM, positive control
T3 sequence (P18031 1-435): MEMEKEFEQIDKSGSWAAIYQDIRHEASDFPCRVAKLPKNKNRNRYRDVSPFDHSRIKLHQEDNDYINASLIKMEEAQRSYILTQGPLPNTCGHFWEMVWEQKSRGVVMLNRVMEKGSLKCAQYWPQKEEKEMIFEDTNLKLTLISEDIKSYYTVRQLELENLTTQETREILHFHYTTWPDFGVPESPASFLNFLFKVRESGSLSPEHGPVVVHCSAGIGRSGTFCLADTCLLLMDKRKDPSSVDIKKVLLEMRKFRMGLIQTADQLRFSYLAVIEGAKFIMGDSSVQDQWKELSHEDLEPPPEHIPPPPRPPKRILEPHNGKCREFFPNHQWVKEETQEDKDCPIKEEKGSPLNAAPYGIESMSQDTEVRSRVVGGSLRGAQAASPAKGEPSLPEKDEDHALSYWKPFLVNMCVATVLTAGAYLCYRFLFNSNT
Experimental: as §1

Sequence of Dusp3/VHR (P51452 whole entry): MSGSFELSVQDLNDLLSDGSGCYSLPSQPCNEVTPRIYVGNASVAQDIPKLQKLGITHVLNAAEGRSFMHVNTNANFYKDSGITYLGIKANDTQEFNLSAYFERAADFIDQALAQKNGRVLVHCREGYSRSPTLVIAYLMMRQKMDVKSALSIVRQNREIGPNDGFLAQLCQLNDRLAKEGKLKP

Row | Structure (SMILES) | Activity (BCI = 100) [1] | also measured
1 | O=C1/C(=C/c2ccccc2)C(NC2CCCCC2)c2ccccc21 (single isomer, unassigned; (-)) [(−)-BCI] | 156 | activity of the levorotatory enantiomer relative to the dextrorotatory form [1]: twice
2 | O[C@H]1/C(=C/c2ccccc2)[C@H](NC2CCCCC2)c2ccccc21 (stereo in doubt) [Compound 18, 2-Benzylidene-3-cyclohexylaminoindan-1-ol] | 26 | –
3 | O=C1/C(=C/c2ccccc2)Cc2ccccc21 [Compound 1, (E)-2-benzylidene-2,3-dihydro-1H-inden-1-one] | 0 | d2EGFP fluorescence in treated transgenic embryos [2]: inactive; in vivo activity relative to BCI, in words [1]: inactive
4 | O=C1/C(=C/c2ccccc2)C(NC2CCCC2)c2ccccc21 (stereo not shown) [Compound 4] | 123 | –
5 | O=C1/C(=C/c2ccccc2)C(NC2CCCCCC2)c2ccccc21 (stereo not shown) [Compound 5, 2-Benzylidene-3-cycloheptylaminoindan-1-one] | 127 | –
6 | O=C1/C(=C/c2ccccc2)C(Nc2ccccc2)c2ccccc21 (stereo not shown) [Compound 6] | 7 | –
7 | O=C1/C(=C/c2ccccc2)C(N2CCCCC2)c2ccccc21 (stereo not shown) [Compound 7] | 114 | –
8 | O=C1/C(=C/c2ccccc2)C(N2CCOCC2)c2ccccc21 (stereo not shown) [Compound 9] | 114 | –
9 | O=C1/C(=C/c2ccccc2)C(N2CCSCC2)c2ccccc21 (stereo not shown) [Compound 10] | 27 | –
10 | O=C1/C(=C/c2ccccc2)C(N2CCNCC2)c2ccccc21 (stereo not shown) [Compound 11] | 22 | –
11 | CN1CCN(C2/C(=C\c3ccccc3)C(=O)c3ccccc32)CC1 (stereo not shown) [Compound 12] | 0 | –
12 | CC(=O)N1CCN(C2/C(=C\c3ccccc3)C(=O)c3ccccc32)CC1 (stereo not shown) [Compound 13] | 47 | –
13 | O=C1/C(=C/c2ccc(Cl)cc2)C(NC2CCCCC2)c2ccccc21 (stereo not shown) [Compound 14] | 52 | activity as compared to BCI [1]: 52%
14 | N#Cc1ccc(/C=C2/C(=O)c3ccccc3C2NC2CCCCC2)cc1 (stereo not shown) [Compound 15] | 20 | activity as compared to BCI [1]: 20%
15 | O=C1N[C@H]2[C@H](CS[C@H]2CCCCC(=O)N[C@H]2CC[C@H](NC3/C(=C\c4ccccc4)C(=O)c4ccccc43)CC2)N1 (stereo partly shown) [Compound 19] | No activity, | in vivo activity relative to BCI, in words [1]: no effect on FGF signaling
16 | O=C1C(SCCO)=C(SCCO)C(=O)c2ccccc21 [NSC95397, 2,3-bis(2-hydroxyethylthio)naphthalene-1,4-dione, reference compound] | – | effect on basal Dusp6 activity toward OMFP (Dusp6): blocked basal Dusp6 activity toward OMFP
17 | [Na+].[Na+].[Na+].[O]=[V]([O-])([O-])[O-] [Sodium orthovanadate, reference compound] | – | inhibition of Cdc25B (Cdc25B): 100%; inhibition of Dusp3/VHR (Dusp3/VHR): 100%; inhibition of PTP1B (PTP1B): 100%
